Assay results published in publication PMC9293909 (Nature Communications, 2022).
Where “and” joins values, the source holds several entries; their conditions need not be identical. Equal entries are not always repeated.

Experiments:
in vitro = conditions: human, plasma
Procedure: (§2) At the end of incubation at each of the time points (0, 0.5, 1, 1.5, 2 h), acetonitrile was added to the incubation mixture followed by centrifugation. Samples were analysed by HPLC-MS/MS and peak areas were recorded for each analyte. The area of precursor compound remaining after each of the time points relative to the amount remaining at time 0, expressed as a percentage, was calculated. Subsequently, the t1/2 is estimated from the slope of the initial linear range of the logarithmic curve of compound remaining (%) versus time, assuming first-order kinetics.

[1] = Half-life determination in human plasma; conditions: UoBern01 at 1.00E-06 M
Procedure: as §2

[2] = Half-life determination in PBS; format: physicochemical; conditions: PBS, pH 7.4
Procedure: […] Samples were analysed by HPLC-MS/MS and corresponding peak areas were recorded for each analyte. The ratio of precursor compound remaining after each time-point relative to the amount present at time 0, expressed as a percentage, is reported as chemical stability.

[3] = Intrinsic clearance by human liver microsomes; conditions: UoBern01 at 1.00E-07 M
[4] = test system: postsynaptic A1Rs, CA1 pyramidal cells; assay: Whole-cell patch-clamp, membrane potential of CA1 pyramidal cells; format: cell-based, rat
Procedure: Rats were kept on a 12-hour light-dark cycle with slices made 90 min after entering the light cycle. […] The brain was removed, cut down the midline and the two sides of the brain stuck down to a metal base plate using cyanoacrylate glue. […] Slices were stored at 34 °C for 1–6 h in aCSF (1 mM MgCl2, 2 mM CaCl2) before use.
(§1) A slice was transferred to the recording chamber and perfused at 3 ml min^−1 with aCSF at 32 ± 0.5 °C. Slices were visualised using IR-DIC optics with an Olympus BX151W microscope (Scientifica) and a CCD camera (Hitachi). […] Voltage and current recordings were obtained using an Axon Multiclamp 700B amplifier (Molecular Devices, USA) and digitised at 20 KHz. Data acquisition and analysis was performed using pClamp 10 (Molecular Devices, USA). For voltage-clamp experiments, CA1 pyramidal cells were held at −60 mV. Peptides to interfere with G protein signalling were introduced via the patch pipette into the recorded cell.

[5] = test system: CA1 pyramidal cells (Goa / Gob signalling); assay: Whole-cell voltage-clamp, adenosine-induced outward current with intracellular G protein interfering peptides; format: cell-based, rat; conditions: adenosine 10 µM, peptide 100 µM, held at −60 mV
Procedure: as §1
Drugs were made up as stock solutions (1-10 mM) and then diluted in aCSF or saline on the day of use. […] MRS1523 was purchased from Cayman Chemicals (Cambridge Bioscience Ltd., Cambridge UK). […] CA200645 and peptides for interfering with G protein signalling were obtained from Hello Bio (Bristol, UK) and were based on published sequences. […] The scrambled version was […]. […] Peptides were made up as stock solutions (2 mM) and stored at −20 °C. The stock solutions were dissolved in filtered intracellular solution just before use.

[6] = incubation 0 minutes, UoBern01 at 1.00E-06 M
[7] = incubation 60 minutes, UoBern01 at 1.00E-06 M
[8] = incubation 120 minutes, UoBern01 at 1.00E-06 M
[9] = incubation 180 minutes, 1.00E-06 M
[10] = incubation 240 minutes, 1.00E-06 M

Compound: CCCOc1cc(N)ccc1C(=O)OCCN(CC)CC [Propoxycaine]
- half-life (in vitro): 3.8 min
- 2nd / Half-Life [1]: 0.0567 h
- Mean / Half-Life [1]: 0.067 h
- 1st / % Compound Remaining ([1]; incubation 0 minutes): 100%
- 2nd / % Compound Remaining ([1]; incubation 0 minutes): 100%
- Mean / % Compound Remaining ([1]; incubation 0 minutes): 100%
- 1st / % Compound Remaining ([1]; incubation 30 minutes): 0.4%
- 2nd / % Compound Remaining ([1]; incubation 30 minutes): 0.2%
- Mean / % Compound Remaining ([1]; incubation 30 minutes): 0.3%
- 1st / % Compound Remaining ([1]; incubation 60 minutes): 0.3%
- 2nd / % Compound Remaining ([1]; incubation 60 minutes): 0.2%
- Mean / % Compound Remaining ([1]; incubation 60 minutes): 0.3%
- 1st / % Compound Remaining ([1]; incubation 90 minutes): 0.3%
- 2nd / % Compound Remaining ([1]; incubation 90 minutes): 0.5%
- Mean / % Compound Remaining ([1]; incubation 90 minutes): 0.4%
- 1st / % Compound Remaining ([1]; incubation 120 minutes): 0.1%
- 2nd / % Compound Remaining ([1]; incubation 120 minutes): 0.3%
- Mean / % Compound Remaining ([1]; incubation 120 minutes): 0.2%

Compound: OC[C@H]1O[C@@H](n2cnc3c(N[C@@H]4CCC[C@H]4OCc4ccccc4)ncnc32)[C@H](O)[C@@H]1O [UoBern01]
- 2nd / Half-Life ([2]; UoBern01 at 1.00E-06 M): >4 h
- Mean / Half-Life ([2]; UoBern01 at 1.00E-06 M): >4 h
- 1st / % Compound Remaining [2, 6]: 100%
- 2nd / % Compound Remaining [2, 6]: 100%
- Mean / % Compound Remaining [2, 6]: 100%
- 1st / % Compound Remaining [2, 7]: 100%
- 2nd / % Compound Remaining [2, 7]: {204.3} %
- Mean / % Compound Remaining [2, 7]: 100%
- 1st / % Compound Remaining [2, 8]: 99.8%
- 2nd / % Compound Remaining [2, 8]: 105.3%
- Mean / % Compound Remaining [2, 8]: 102.5%
- 1st / % Compound Remaining [2, 9]: 96.7%
- 2nd / % Compound Remaining [2, 9]: {108.7} %
- Mean / % Compound Remaining [2, 9]: 96.7%
- 1st / % Compound Remaining [2, 10]: 89.5%
- 2nd / % Compound Remaining [2, 10]: 100.9%
- Mean / % Compound Remaining [2, 10]: 95.2%
- 1st / Half-Life [1]: >2 h
- 2nd / Half-Life [1]: >2 h
- Mean / Half-Life [1]: >2 h
- 1st / % Compound Remaining ([1]; incubation 0 minutes): 100%
- 2nd / % Compound Remaining ([1]; incubation 0 minutes): 100%
- Mean / % Compound Remaining ([1]; incubation 0 minutes): 100%
- 1st / % Compound Remaining ([1]; incubation 30 minutes): 104.2%
- 2nd / % Compound Remaining ([1]; incubation 30 minutes): {224.0} %
- Mean / % Compound Remaining ([1]; incubation 30 minutes): 104.2%
- 1st / % Compound Remaining ([1]; incubation 60 minutes): 124.2%
- 2nd / % Compound Remaining ([1]; incubation 60 minutes): 99%
- Mean / % Compound Remaining ([1]; incubation 60 minutes): 111.6%
- 1st / % Compound Remaining ([1]; incubation 90 minutes): 133.3%
- 2nd / % Compound Remaining ([1]; incubation 90 minutes): 101.7%
- Mean / % Compound Remaining ([1]; incubation 90 minutes): 117.5%
- 1st / % Compound Remaining ([1]; incubation 120 minutes): {142.4} %
- 2nd / % Compound Remaining ([1]; incubation 120 minutes): 108.4%
- Mean / % Compound Remaining ([1]; incubation 120 minutes): 108.4%
- Clint [3]: <115.5
- Mean / Half-Life [3]: >1 h
- 1st / % Compound Remaining ([3]; incubation 0 minutes): 100%
- 2nd / % Compound Remaining ([3]; incubation 0 minutes): 100%
- Mean / % Compound Remaining ([3]; incubation 0 minutes): 100%
- 1st / % Compound Remaining ([3]; incubation 15 minutes): 108.5%
- 2nd / % Compound Remaining ([3]; incubation 15 minutes): 101.9%
- Mean / % Compound Remaining ([3]; incubation 15 minutes): 105.2%
- 1st / % Compound Remaining ([3]; incubation 30 minutes): 92.9%
- 2nd / % Compound Remaining ([3]; incubation 30 minutes): 86%
- Mean / % Compound Remaining ([3]; incubation 30 minutes): 89.4%
- 1st / % Compound Remaining ([3]; incubation 45 minutes): 92%
- 2nd / % Compound Remaining ([3]; incubation 45 minutes): 89.5%
- Mean / % Compound Remaining ([3]; incubation 45 minutes): 90.7%
- 1st / % Compound Remaining ([3]; incubation 60 minutes): 84.1%
- 2nd / % Compound Remaining ([3]; incubation 60 minutes): 69.7%
- Mean / % Compound Remaining ([3]; incubation 60 minutes): 76.9%

Compound: NCC(CC(=O)O)c1ccc(Cl)cc1 (stereo not drawn) [baclofen]
- membrane hyperpolarisation ([4]; baclofen 10 µM in the presence of BnOCPA 300 nM): 6.5 ± 0.43 mV
- membrane hyperpolarisation ([4]; baclofen in control conditions): 6.3 ± 0.76 mV

Compound: LNRGNAYLCIGMG [Goa SCR, scrambled version of the Goa interfering peptide]
- adenosine-induced outward current with intracellular peptide [5]: 45.8 pA and 40.3 pA and 52.5 pA and 32 pA and 47 pA and 43.9 pA and 42 pA
- adenosine-induced outward current with intracellular peptide ([5]; listed as scrambled Goa peptide): 43.4 ± 2.4 pA
- adenosine-induced outward current with intracellular peptide ([5]; mean): 43.36 pA
